The data set can be described thus: solvent given as SMILES.

Molecules are shown by their SMILES.

With `N#Cc1ccc(-c2nc(-c3ccccc3)c3ccccn23)cc1`, the absorption maximum was found to be 377 nm (in C1CCCCC1); 377 nm (in CC#N); 372 nm (in CO); 380 nm (in ClCCl); 430 nm (in O). As for `CCCCCCCCCCCCCCCCCCOC(=O)/C=C/C1=CC2=C(c3c(C)cc(C)cc3C)c3cc(/C=C/C(=O)OCCCCCCCCCCCCCCCCCC)cn3[B-](F)(F)[N+]2=C1`, where the note is “in ClCCl”, the absorption maximum is recorded as 578 nm. Regarding `CN(C)c1ccc(C#Cc2ccc3ccc4ccc(C#Cc5ccc(N(C)C)cc5)c5ccc2c3c45)cc1`, the absorption maximum runs as follows: (in C1COCCO1) 429 nm; (in CC(C)=O) 431 nm; (in CCCCCC) 421 nm; (in CCCCCCO) 429 nm; (in CCO) 426 nm; (in CCOC(C)=O) 428 nm. Further, the absorption maximum reads like this: (in CO) 427 nm; (in Cc1ccccc1) 429 nm; (in ClCCl) 429 nm. In the case of `CC(C)(C)Nc1cc(F)c(C(=O)c2cc(F)c(NC(C)(C)C)cc2F)cc1F`, the absorption maximum (in CCO) is listed as 348 nm.

`COc1cc2c3sc4ccccc4c3c3cncnc3c2c(OC)c1OC` came in with an absorption maximum (in ClCCl) of 376 nm. On the same count and under the same terms, the result for `CCCCCCOc1cc(C=C(C#N)C#N)c(OCCCCCC)cc1C=C(C#N)C#N` reads 477 nm. `CCCN1c2ccccc2Sc2cc(/C=C\c3cc(=O)oc4cc(C)c(Cl)cc34)ccc21`: for the setting “in ClC(Cl)Cl”, the absorption maximum turned out to be 432 nm.

For `N#CC(C#N)=Cc1ccc2c(c1)[nH]c1c3ccccc3sc21`, the absorption maximum (in ClCCl) is 445 nm.

Regarding `Cc1c2c(c(C)c3ccccc13)-c1cc3nc4ccccc4nc3cc1-2`, the absorption maximum (in ClC(Cl)Cl) stood at 448 nm. Take `CN(C)c1ccc(C2=CC3=C(c4ccc(C=O)cc4)[C@H]4c5ccccc5[C@]3(S2)c2ccccc24)cc1`: the absorption maximum (in ClCCl) was 449 nm.

Turning to `O=C1C=C(Nc2ccccc2[N+](=O)[O-])C(=O)c2ccccc21`, the absorption maximum (in CO) came to 450 nm. Turning to `CN(C)c1ccc(C#Cc2nc(-c3ccccc3)nc3ccccc23)cc1`, the absorption maximum (in ClCCl) stood at 414 nm. Turning to `CC[N+]1(CC)CN2C(=N1)C(C(=O)O)=Cc1cc(OC)c(OC)cc12`, the absorption maximum (in O) is 392 nm. Take `COc1cc2c3c4c(c5ccc(C(C)(C)C)cc5c5c(OC)cc(OC)c(c2c(OC)c1OC)c45)=[N+]1C3=Nc2c3c4cc(OC)c(OC)c(OC)c4c4c(OC)cc(OC)c5c6cc(C(C)(C)C)ccc6c(c3c54)n2[B-]1(F)F`: the absorption maximum (in Cc1ccccc1) was found to be 878 nm. For the setting “in C1COCCO1”, `CC(C)CN1C(=O)/C(=C/c2ccc(C#N)cc2)C=C1c1ccccc1` showed an absorption maximum of 440 nm.

`O=C1O/C(=C\c2ccccc2)c2ccccc21` came in with an absorption maximum (in CC#N) of 335 nm.

Compound `CCCCN1C(=O)c2cc(Br)c3c4c(Br)c(Br)c5c6c(cc(Br)c(c7c(Br)c(Br)c(c2c37)C1=O)c64)C(=O)N(CCCC)C5=O` registered an absorption maximum (in ClC(Cl)Cl) of 534 nm.

On to `Nc1ccc2c(-c3ccc(C(=O)CN4C(=O)CCC4=O)cc3C(=O)[O-])c3ccc(=[NH2+])c(S(=O)(=O)[O-])c-3oc2c1S(=O)(=O)[O-]`, for which the absorption maximum (in O) is 494 nm.

In turn, `CC(C)(C)c1cc(C(C)(C)C)c(-c2nnc(-c3ccc(-n4c5ccccc5c5ccccc54)cc3)o2)c(C(C)(C)C)c1` gave an absorption maximum (in Cc1ccccc1) of 340 nm. The compound `CCN(CC)c1ccc2cc(-c3nc4cc(C(=O)Nc5ccc(C)cc5[N+](=O)[O-])ccc4o3)c(=O)oc2c1` registered an absorption maximum (in ClCCl) of 445 nm. Consider `CN(C)c1ccc(/C=C/c2ccncn2)cc1`, for which, where the note is “in ClCCl”, the absorption maximum was determined as 393 nm. The compound `COC(=O)c1nc2cnc(N)nc2n1Cc1ccccc1` came in with an absorption maximum (in C1COCCO1) of 331 nm; an absorption maximum (in CC#N) of 330 nm; an absorption maximum (in CO) of 335 nm; an absorption maximum (in ClCCl) of 328 nm; an absorption maximum (in O) of 325 nm. As for `F[B-]1(F)OC(c2ccccc2)=Cc2c3ccccc3c3ccccc3[n+]21`, the absorption maximum (in ClC(Cl)Cl) is reported as 432 nm. `CC1=C(C#Cc2ccc(N(c3ccccc3)c3ccccc3)cc2)C(C)=[N+]2C1=C(c1ccccc1)c1c(C)c(C#Cc3ccc(N(c4ccccc4)c4ccccc4)cc3)c(C)n1[B-]2(F)F` had an absorption maximum (in C1CCOC1) of 593 nm. For `Fc1ccc(C#Cc2c(C#Cc3ccc(F)cc3)c(C#Cc3ccc(F)cc3)c(C#Cc3ccc(F)cc3)c(C#Cc3ccc(F)cc3)c2C#Cc2ccc(F)cc2)cc1`, the absorption maximum (in ClCCl) amounted to 368 nm.

Where the note is “in ClCCl”, `CCCCCCCCCCCCCCCCCCOc1ccc([B-]23NC(c4ccccc4)=Nc4cccc([n+]42)N=C(c2ccccc2)N3)cc1` showed an absorption maximum of 431 nm.

`CCCCCCCCCC1(CCCCCCCCC)c2cc(C#Cc3ccc(/C=C/c4ccc(N(CCCCCCCC)CCCCCCCC)cc4)cc3)ccc2-c2ccc(C#Cc3ccc(/C=C/c4ccc(N(CCCCCCCC)CCCCCCCC)cc4)cc3)cc21` had an absorption maximum (in Cc1ccccc1) of 411 nm. As for `N#Cc1cc2ccc3cc(C#N)c4ccccc4c3c2c2ccccc12`, the absorption maximum (in ClC(Cl)Cl) came to 422 nm.

Turning to `Cc1cc(O)c(C(=O)/C=C/c2ccccc2O)c(=O)o1`, the absorption maximum was 359 nm (in CC#N) and 360 nm (in ClCCl). As to `COC(=O)c1nc2c(N(C)C)nc(N)nc2n1Cc1ccccc1`, the absorption maximum is, setting by setting: (in C1COCCO1) 334 nm; (in CC#N) 332 nm; (in CO) 331 nm; (in ClCCl) 330 nm. Compound `CCC1=C(C)C2=C(/C=C/c3ccc([N+](=O)[O-])cc3)c3c(C)c(CC)c(/C=C/c4ccc(OC)cc4)n3[B-](F)(F)[N+]2=C1/C=C/c1ccc(OC)cc1` came in with an absorption maximum (in ClCCl) of 666 nm. As for `FC(F)(F)c1ccc(-c2nc(-c3ccc(C(F)(F)F)cc3)n3ccccc23)cc1`, the absorption maximum (in ClC(Cl)Cl) came out at 325 nm. On to `N#CC1=CC(C#Cc2ccccc2)=CC(C#N)=P1(c1ccccc1)c1ccccc1`, for which the absorption maximum (in ClC(Cl)Cl) came out at 489 nm. Take `COc1ccc(-c2ccc(-c3ccc(C#N)cc3)cc2)cc1`: the absorption maximum (in C1CCCCC1) came to 305 nm.

On to `CCC1=C(C)C2=Cc3c(I)c(I)cn3[B-](F)(F)[N+]2=C1C`, for which the absorption maximum reads like this: (in C1CCCCC1) 527.5 nm; (in CC(C)=O) 509 nm; (in CCO) 517.5 nm; (in CCOC(C)=O) 515 nm; (in CO) 513 nm; (in OCC(F)(F)F) 501 nm.

Take `N#Cc1ccc(-n2c(-c3ccc(-c4ccc(-c5nc6c7ccccc7c7ccccc7c6n5-c5ccc(C#N)c6ccccc56)c5ccccc45)c4ccccc34)nc3c4ccccc4c4ccccc4c32)c2ccccc12`: the absorption maximum (in ClCCl) amounted to 336 nm.

As to `COC(=O)c1cc(/N=N/c2cc3c4c(c2)CCCN4CCC3)cc(C(=O)OC)c1`, where the note is “in CCOC(C)=O”, the absorption maximum was 471 nm. As for `O=c1c2cc(F)c(N3CCOCC3)cc2oc2cc(N3CCOCC3)c(F)cc12`, the absorption maximum (in CCO) was 344 nm. With `O=[N+]([O-])c1ccc(S(=O)(=O)Nc2ccc(C#Cc3ccc4ccc5ccc(C#Cc6ccc(NS(=O)(=O)c7ccc([N+](=O)[O-])cc7[N+](=O)[O-])cc6)c6ccc3c4c56)cc2)c([N+](=O)[O-])c1`, under “in CO”, the absorption maximum is reported as 402 nm. In turn, `COc1ccc2cc(/C=C/c3nc(/C=C/c4ccc(N(C)C)cc4)cc(/C=C/c4ccc(N(C)C)cc4)n3)ccc2c1` had an absorption maximum (in ClCCl) of 418 nm. With `COc1c2ccccc2c(OC)c2c1c1cccc(OC)c1n2C`, the absorption maximum is, setting by setting: (in C1CCCCC1) 409 nm; (in CC#N) 409 nm; (in CO) 407 nm; (in ClCCl) 412 nm.

As to `CC(C)(C)NC(=O)c1ccc2ccc3cccc4ccc1c2c34`, for the setting “in ClC(Cl)Cl”, the absorption maximum is given as 377 nm. Under “in CC1CCCO1”, `c1ccc2c(c1)-c1ccccc1C21c2ccccc2-c2ncccc21` displayed an absorption maximum of 314 nm. For `CCCCCCCCCCCCN1C(=O)c2c(c3ccc4cc(-c5ccccc5)c(OC)cc4c3c3c2ccc2cc(-c4ccccc4)c(OC)cc23)C1=O`, the absorption maximum (in ClCCl) was determined as 432 nm. `Cc1cc(C)c(B(c2ccc(N(c3ccccc3)c3ccccc3)cc2)c2c(C)cc(C)cc2C)c(C)c1` yielded an absorption maximum (in Cc1ccccc1) of 380 nm.

The compound `O=S(=O)(c1ccc(-c2ccc(-n3c4ccccc4c4ccccc43)cc2)cc1)c1ccc(-c2ccc(-n3c4ccccc4c4ccccc43)cc2)cc1` showed an absorption maximum (in Cc1ccccc1) of 341 nm. With `C[Si]1(C)c2cc(-c3ccccc3)ccc2C=Cc2ccc(-c3ccccc3)cc21`, the absorption maximum (in ClCCl) came to 379 nm. For the setting “in ClCCl”, `COc1ccc2c(c1)-c1cc3c(cc1[Si]2(c1ccccc1)c1ccccc1)-c1ccccc1[Si]3(c1ccccc1)c1ccccc1` displayed an absorption maximum of 334 nm. On the same count and under the same terms, the result for `C(#Cc1c2ccccc2c(-c2ccccc2)c2cc3ccccc3cc12)c1ccccc1` reads 522 nm.

Consider `CCCCCCCCN1C(=O)c2ccc3c4c(-c5ccc(-n6c7ccccc7c7ccccc76)cc5)cc5c6c(cc(-c7ccc(-n8c9ccccc9c9ccccc98)cc7)c(c7ccc(c2c37)C1=O)c64)C(=O)N(CCCCCCCC)C5=O`, for which the absorption maximum (in ClC(Cl)Cl) amounted to 551 nm. Under “in ClCCl”, `[O-][n+]1c(-c2ccccc2)cc(N2CCOCC2)nc1/C=C/c1ccccc1` displayed an absorption maximum of 445 nm.

For the compound `F[B-]1(F)OC(c2ccc(C(F)(F)F)cc2)=Cc2cc(Cl)nc[n+]21`, the absorption maximum is listed as 371 nm (in C1CCOC1); 368 nm (in CC#N); 370 nm (in CCCCCC); 374 nm (in Cc1ccccc1); 372 nm (in ClC(Cl)Cl); 372 nm (in ClCCl). Take `CCOC(=O)c1ccc(O)c(-c2[nH]c(=O)n3c2-c2ccccc2C3=O)c1`: the absorption maximum runs as follows: (in CC#N) 391 nm; (in CO) 395 nm; (in ClCCl) 399 nm. For the setting “in ClCCl”, `F[B-]1(F)n2c(c(-c3ccccc3)c3ccccc32)C(c2ccccc2)=C2C(c3ccccc3)=c3ccccc3=[N+]21` came in with an absorption maximum of 568 nm.

In the case of `O=c1oc2ccc(Cl)cc2cc1-c1cc2cc(Cl)ccc2o1`, the absorption maximum is 369 nm (in CC#N); 370 nm (in CCOC(C)=O); 373 nm (in CS(C)=O); 375 nm (in Cc1ccccc1); 327 nm (in O). Regarding `CCc1cc(CC)cc(-n2c3ccccc3c3cc4c(cc32)c2ccccc2n4-c2cc(CC)cc(CC)c2)c1`, under “in ClC(Cl)Cl”, the absorption maximum is reported as 410 nm.
